# Data published in ChEMBL document CHEMBL4024705 (Bioorg Med Chem Lett, 2017).
# Tests used:
# [1] = system: Liver; assay: Stability of the compound in mouse liver microsomes assessed as compound remaining; format: ADME, microsome
# [2] = system: Liver; assay: Stability of the compound in rat liver microsomes assessed as compound remaining; format: ADME, microsome
# [3] = system: Liver; assay: Stability of the compound in human liver microsomes assessed as compound remaining; format: ADME, microsome
# [4] = Permeability of the compound by PAMPA; format: physicochemical; conditions: read-out: permeability
Compound,Stability [1],Stability [2],Stability [3],Papp [4]
CC[C@H]1COC(C)(C)C(=O)N1c1cc(-c2cc(Cl)c3c(N)ncnn23)ccc1C#N,1%,4%,53%,
[2H]C([2H])([2H])C1([2H])N(c2cc(-c3cc(Cl)c4c(N)ncnn34)ccc2C#N)C(=O)C(C)(C)OC1([2H])[2H] (centres undefined),0 to 28%,34 to 37%,83 to 87%,
C[C@@H]1COC(C)(C)C(=O)N1c1cc(-c2cc(Cl)c3c(N)ncnn23)ccc1C#N,28%,25%,92%,
C[C@H]1COC(C)(C)C(=O)N1c1cc(-c2cc(C(F)(F)F)c3c(N)ncnn23)ccc1C#N,1%,1%,23%,
C[C@H]1OC(C)(C)C(=O)N(c2cc(-c3cc(C(F)(F)F)c4c(N)ncnn34)ccc2C#N)[C@H]1C,4%,2%,50%,65.9 ×10⁻⁶ cm/s
C[C@@H]1CN(c2cc(-c3cc(Cl)c4c(N)ncnn34)ccc2C#N)C(=O)C(C)(C)O1,43%,5%,61%,
C[C@H]1CN(c2cc(-c3cc(Cl)c4c(N)ncnn34)ccc2C#N)C(=O)C(C)(C)O1,0%,0%,18%,

# More lines, now with the values ahead:
Stability [1],Stability [2],Stability [3],Papp [4],Compound
74%,75%,91%,,[2H]C1([2H])OC(C)(C)C(=O)N(c2cc(-c3cc(C(F)(F)F)c4c(N)ncnn34)ccc2C#N)C1([2H])[2H]
24%,29%,85%,,C[C@H]1CN(c2cc(-c3cc(C(F)(F)F)c4c(N)ncnn34)ccc2C#N)C(=O)C(C)(C)O1
0 to 18%,32 to 44%,77 to 91%,,[2H]C([2H])([2H])C1([2H])N(c2cc(-c3cc(C(F)(F)F)c4c(N)ncnn34)ccc2C#N)C(=O)C(C)(C)OC1([2H])[2H] (centres undefined)
58%,76%,94%,,[2H]C1([2H])OC(C)(C)C(=O)N(c2cc(-c3cc(Cl)c4c(N)ncnn34)ccc2C#N)C1([2H])[2H]
